Laboratory results: ChEMBL document CHEMBL1157511, “Dictazolines A and B, bisspiroimidazolidinones from the marine sponge Smenospongia cerebriformis” (J Nat Prod, 2008)
The source made the active and inactive calls. The calls are words filed in the database; no cut-off is given here.

Assay: Inhibition of beta-secretase assessed as proteolytic cleavage of amyloid precursor protein

In the case of `CN1C(=N)N(C)[C@@]2(Cc3c([nH]c4ccccc34)[C@]3(C(=O)N(C)C(=N)N3C)[C@@H]2c2c[nH]c3cc(Br)ccc23)C1=O`, the Activity is reported as “inactive”.
With `CN1C(=N)N(C)[C@@]2(Cc3c([nH]c4ccccc34)[C@]3(C(=O)N(C)C(=N)N3C)[C@@H]2c2c[nH]c3ccccc23)C1=O` the Activity was “inactive”.
